Series [1] concerns the target T1, 3',5'-cyclic-AMP phosphodiesterase 4B (Homo sapiens, UniProt Q07343). The series can be described thus: Ability to block TNFalpha release through inhibition of PDE4 in LPS-stimulated human whole blood. It is filed as functional, tissue-based.
Series [2] concerns the target 3',5'-cyclic-AMP phosphodiesterase 4A (Homo sapiens, UniProt P27815). The series can be described thus: Inhibition of human GST-PDE4A.
The target of series [3] is 3',5'-cyclic-AMP phosphodiesterase 4C (Homo sapiens, UniProt Q08493). The series can be described thus: Inhibition of human GST-PDE4C.
Sequence of 3',5'-cyclic-AMP phosphodiesterase 4C (Q08493 whole entry): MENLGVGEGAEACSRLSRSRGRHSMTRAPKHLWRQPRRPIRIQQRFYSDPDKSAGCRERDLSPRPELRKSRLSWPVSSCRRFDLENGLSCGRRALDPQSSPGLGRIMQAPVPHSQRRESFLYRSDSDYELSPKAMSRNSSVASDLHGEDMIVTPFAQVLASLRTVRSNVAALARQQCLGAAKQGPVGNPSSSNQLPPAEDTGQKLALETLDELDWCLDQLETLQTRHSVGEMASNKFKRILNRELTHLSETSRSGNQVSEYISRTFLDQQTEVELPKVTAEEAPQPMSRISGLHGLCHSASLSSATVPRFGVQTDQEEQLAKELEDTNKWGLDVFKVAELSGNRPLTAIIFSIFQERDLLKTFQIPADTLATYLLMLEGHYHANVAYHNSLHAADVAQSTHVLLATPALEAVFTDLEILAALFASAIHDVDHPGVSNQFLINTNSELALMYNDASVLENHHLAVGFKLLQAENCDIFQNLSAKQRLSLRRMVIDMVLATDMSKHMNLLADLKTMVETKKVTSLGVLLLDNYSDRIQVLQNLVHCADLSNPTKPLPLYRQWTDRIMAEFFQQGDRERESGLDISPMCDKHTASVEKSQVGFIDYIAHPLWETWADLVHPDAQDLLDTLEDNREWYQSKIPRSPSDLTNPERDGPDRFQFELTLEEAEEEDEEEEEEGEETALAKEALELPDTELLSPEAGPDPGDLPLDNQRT
Series [4] concerns the target T1, 3',5'-cyclic-AMP phosphodiesterase 4B. The experiment in a line: Inhibition of human GST-PDE4B.
For series [5], the target named is 3',5'-cyclic-AMP phosphodiesterase 4D (Homo sapiens, UniProt Q08499). The experiment in a line: Inhibition of human GST-PDE4D.
Sequence of 3',5'-cyclic-AMP phosphodiesterase 4D (Q08499 whole entry): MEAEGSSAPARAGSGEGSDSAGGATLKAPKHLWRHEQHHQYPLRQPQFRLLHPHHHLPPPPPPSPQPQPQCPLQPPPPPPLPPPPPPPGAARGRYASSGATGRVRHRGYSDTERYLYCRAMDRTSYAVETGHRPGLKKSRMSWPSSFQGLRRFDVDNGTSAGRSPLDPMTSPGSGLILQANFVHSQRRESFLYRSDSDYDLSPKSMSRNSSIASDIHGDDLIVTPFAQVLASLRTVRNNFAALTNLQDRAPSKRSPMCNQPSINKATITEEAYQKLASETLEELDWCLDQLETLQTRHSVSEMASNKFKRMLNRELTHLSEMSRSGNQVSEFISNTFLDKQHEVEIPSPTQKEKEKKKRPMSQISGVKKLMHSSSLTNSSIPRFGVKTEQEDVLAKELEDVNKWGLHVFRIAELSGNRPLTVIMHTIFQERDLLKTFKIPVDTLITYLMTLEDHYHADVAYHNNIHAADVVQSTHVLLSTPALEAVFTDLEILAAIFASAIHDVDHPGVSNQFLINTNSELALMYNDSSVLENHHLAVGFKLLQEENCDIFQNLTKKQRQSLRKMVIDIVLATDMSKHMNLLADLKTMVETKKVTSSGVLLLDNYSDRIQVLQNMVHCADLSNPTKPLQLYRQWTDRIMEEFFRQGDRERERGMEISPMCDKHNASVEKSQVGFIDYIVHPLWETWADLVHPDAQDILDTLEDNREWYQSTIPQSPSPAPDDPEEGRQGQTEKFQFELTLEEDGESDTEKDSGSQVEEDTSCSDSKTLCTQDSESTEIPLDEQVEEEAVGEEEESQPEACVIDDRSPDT
Series [6] can be described thus: Cmax in rat. The conditions noted are these: in vivo. Type of series: ADME, organism-based.
A short description of series [7]: Oral bioavailability in rat. It is filed as ADME, organism-based. The conditions noted are these: in vivo.
Series [8] has as its system Cavia porcellus. The experiment in a line: Inhibition of ovalbumin-induced bronchoconstriction in guinea pig at 30 ug/kg, ip. Type of series: functional.
Series [9] can be described thus: Half life in iv dosed squirrel monkey. Type of series: ADME, organism-based, Saimiri sciureus. As to conditions: in vivo.
Series [10] is described as follows: Cmax in squirrel monkey. It is filed as ADME, organism-based, Saimiri sciureus. The conditions noted are these: in vivo.
Series [11] is described as follows: Oral bioavailability in squirrel monkey. Type of series: ADME, organism-based, Saimiri sciureus. As to conditions: in vivo.
Series [12] can be described thus: Half life in iv dosed rat. Type of series: ADME, organism-based. As to conditions: in vivo.
In series [13] the test system is Cavia porcellus. The experiment in a line: Inhibition of ovalbumin-induced bronchoconstriction in guinea pig at 1 mg/kg, ip. It is filed as functional. As to conditions: route intraperitoneal.

T1 sequence (Q07343 whole entry): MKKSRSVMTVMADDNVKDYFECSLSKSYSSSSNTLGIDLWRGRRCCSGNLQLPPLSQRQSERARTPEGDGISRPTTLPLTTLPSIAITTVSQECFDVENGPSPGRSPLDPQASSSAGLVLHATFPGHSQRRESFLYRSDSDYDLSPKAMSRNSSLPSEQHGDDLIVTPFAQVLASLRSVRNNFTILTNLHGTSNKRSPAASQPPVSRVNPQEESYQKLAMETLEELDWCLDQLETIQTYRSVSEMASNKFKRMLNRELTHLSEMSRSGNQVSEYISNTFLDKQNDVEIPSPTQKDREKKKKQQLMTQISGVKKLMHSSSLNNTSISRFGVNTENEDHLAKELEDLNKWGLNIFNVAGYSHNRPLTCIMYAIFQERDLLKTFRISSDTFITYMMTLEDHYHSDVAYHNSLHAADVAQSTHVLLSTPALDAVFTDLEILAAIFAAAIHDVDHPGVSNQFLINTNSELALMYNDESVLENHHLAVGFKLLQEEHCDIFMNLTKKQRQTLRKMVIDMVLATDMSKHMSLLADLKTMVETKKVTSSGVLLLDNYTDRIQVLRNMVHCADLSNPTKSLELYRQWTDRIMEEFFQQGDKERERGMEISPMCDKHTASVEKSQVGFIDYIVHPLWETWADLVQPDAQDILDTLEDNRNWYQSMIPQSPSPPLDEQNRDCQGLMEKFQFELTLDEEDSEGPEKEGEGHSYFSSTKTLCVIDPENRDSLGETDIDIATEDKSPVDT
Sequence of 3',5'-cyclic-AMP phosphodiesterase 4A (P27815 whole entry): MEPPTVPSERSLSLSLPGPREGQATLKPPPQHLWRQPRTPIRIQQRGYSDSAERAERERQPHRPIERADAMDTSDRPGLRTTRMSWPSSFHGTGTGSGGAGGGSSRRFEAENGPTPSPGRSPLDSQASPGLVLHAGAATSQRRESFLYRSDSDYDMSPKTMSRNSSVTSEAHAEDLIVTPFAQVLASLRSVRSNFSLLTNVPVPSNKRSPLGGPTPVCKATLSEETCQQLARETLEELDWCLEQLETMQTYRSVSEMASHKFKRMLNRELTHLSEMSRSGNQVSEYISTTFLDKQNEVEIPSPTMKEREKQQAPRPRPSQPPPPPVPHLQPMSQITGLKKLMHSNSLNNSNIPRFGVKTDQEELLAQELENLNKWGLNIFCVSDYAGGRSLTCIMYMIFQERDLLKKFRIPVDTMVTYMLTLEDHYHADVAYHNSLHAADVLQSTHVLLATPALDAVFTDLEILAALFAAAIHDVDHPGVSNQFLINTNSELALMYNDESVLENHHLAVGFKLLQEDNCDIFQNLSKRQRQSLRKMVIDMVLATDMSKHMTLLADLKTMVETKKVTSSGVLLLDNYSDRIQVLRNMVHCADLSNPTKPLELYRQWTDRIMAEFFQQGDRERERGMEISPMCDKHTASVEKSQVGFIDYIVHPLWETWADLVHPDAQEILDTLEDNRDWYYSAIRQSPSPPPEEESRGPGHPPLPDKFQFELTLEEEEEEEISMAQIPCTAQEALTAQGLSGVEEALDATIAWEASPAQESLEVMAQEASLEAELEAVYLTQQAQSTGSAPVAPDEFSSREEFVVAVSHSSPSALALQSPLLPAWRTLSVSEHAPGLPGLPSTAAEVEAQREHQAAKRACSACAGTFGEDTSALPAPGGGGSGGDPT

In general, IC50 refers to the midpoint of a concentration-inhibition curve. `CC(=O)N(c1ccc(S(C)(=O)=O)cc1)C(C)c1cccc(-c2cc(C(C)(C)S(C)(=O)=O)cc3cccnc23)c1` (configuration not stated): the IC50 in series [1] was 2000 nM; in series [2] it was 10 nM; in series [3] it was 41 nM; in series [4], 4.2 nM; in [5], 6.7 nM.

As to `CC(C)NC(=O)N(Cc1cccc(-c2cc(C(C)(C)C#N)cc3cccnc23)c1)c1ccc(S(C)(=O)=O)cc1`, the IC50 in [1] was 140 nM; in [2], 0.1 nM; in series [3], 1.7 nM; in series [4], 0.1 nM; in series [5] it was 0.1 nM.

As to `CC(C)(C#N)c1cc(-c2cccc(CN(C(=O)Nc3ccccc3)c3ccc(S(C)(=O)=O)cc3)c2)c2ncccc2c1`, the IC50 in series [1] amounted to 40 nM; in series [2] it was 0.1 nM; in [3], 0.05 nM; in series [4], 0.03 nM; in series [5], 0.1 nM.

Regarding `CC(C)(c1cc(-c2cccc(C(=O)Nc3c(Cl)cncc3Cl)c2)c2ncccc2c1)S(C)(=O)=O`, the IC50 in series [1] was 90 nM; in series [2], 0.6 nM; in [3], 5.5 nM; in series [4], 0.4 nM; in series [5], 0.7 nM.

As for `CC(c1cccc(-c2cc(C(C)(C)S(C)(=O)=O)cc3cccnc23)c1)N(C(=O)c1ccc(F)cc1)c1ccc(S(C)(=O)=O)cc1` (single isomer, unassigned; enantiomer B), the IC50 in series [1] turned out to be 250 nM; in [2], 1.8 nM; in [3], 7.5 nM; in series [4], 0.5 nM; in series [5] it was 0.7 nM.

Consider `CC(C)OC(=O)N(Cc1cccc(-c2cc(C(C)(C)C#N)cc3cccnc23)c1)c1ccc(S(C)(=O)=O)cc1`, for which the IC50 in series [1] stood at 80 nM; in [2], 0.3 nM; in [3], 4.2 nM; in series [4], 0.3 nM; in [5], 0.3 nM.

Regarding `CC(C)NC(=O)N(Cc1cc(-c2cc(C(C)(C)S(C)(=O)=O)cc3cccnc23)ccc1Cl)c1ccc(S(C)(=O)=O)cc1`, the IC50 amounted to 4000 nM in [1]; 15 nM in series [2]; 70 nM in [3]; 4.4 nM in series [4]; 10 nM in series [5].

For the compound `CC(C)NC(=O)N(Cc1cccc(-c2cc(C(C)(C)S(C)(=O)=O)cc3cccnc23)c1)c1ccc(S(C)(=O)=O)cc1`, the IC50 in [1] stood at 100 nM; in series [2], 0.1 nM; in series [3] it was 1.7 nM; in [4] it was 0.1 nM; in [5], 0.1 nM.

On to `CC(C)(c1cc(-c2cccc(C(N)=O)c2)c2ncccc2c1)S(C)(=O)=O`, for which the IC50 in series [2] was found to be 78 nM; in [3], 490 nM; in series [4] it was 40 nM; in [5] it was 74 nM.

As for `CC(C)(c1cc(-c2cccc(NC(=O)c3ccc(S(C)(=O)=O)cc3)c2)c2ncccc2c1)S(C)(=O)=O`, the 50% inhibitory concentration (IC50) came out at 1000 nM in series [1]; 1.7 nM in [2]; 10.6 nM in series [3]; 1.2 nM in series [4]; 2.3 nM in [5].

Regarding `CC(C)(C#N)c1cc(-c2cccc(CN(C(=O)c3ccccc3)c3ccc(S(C)(=O)=O)cc3)c2)c2ncccc2c1`, the IC50 turned out to be 80 nM in [1]; 0.2 nM in series [2]; 1 nM in series [3]; 0.1 nM in [4]; 0.3 nM in series [5].

Take `CC(C)(c1cc(-c2cccc(C(=O)Nc3ccc(S(C)(=O)=O)cc3)c2)c2ncccc2c1)S(C)(=O)=O`: the IC50 turned out to be 140 nM in series [1]; 3.5 nM in series [2]; 26 nM in [3]; 0.5 nM in series [4]; 2.8 nM in [5].

With `CC(C)(c1cc(-c2cccc(C(=O)Nc3ccncc3)c2)c2ncccc2c1)S(C)(=O)=O`, the IC50 in series [1] is 200 nM; in [2], 3.1 nM; in series [3], 17 nM; in [4], 0.9 nM; in series [5], 3 nM.

For the compound `CC(c1cccc(-c2cc(C(C)(C)S(C)(=O)=O)cc3cccnc23)c1)N(C(=O)c1cccnc1)c1ccc(S(C)(=O)=O)cc1` (configuration not stated), the IC50 came out at 210 nM in series [1]; 2.1 nM in series [2]; 14 nM in [3]; 0.7 nM in series [4]; 1.7 nM in [5].

As for `CC(C)(c1cc(-c2cccc(C(=O)Nc3ccccc3)c2)c2ncccc2c1)S(C)(=O)=O`, the IC50 in [1] is 7000 nM; in series [2], 16 nM; in series [3] it was 97 nM; in series [4] it was 5.9 nM; in series [5], 10 nM.

On to `CC(c1cccc(-c2cc(C(C)(C)S(C)(=O)=O)cc3cccnc23)c1)N(C(=O)c1ccc(F)cc1)c1ccc(S(C)(=O)=O)cc1` (single isomer, unassigned; enantiomer A), for which the IC50 amounted to 1400 nM in [1]; 15 nM in series [2]; 51 nM in [3]; 5.8 nM in series [4]; 7 nM in series [5].

Consider `CC(C)(C#N)c1cc(-c2cccc(CN(Cc3ccc(F)cc3)c3ccc(S(C)(=O)=O)cc3)c2)c2ncccc2c1`, for which the IC50 in [1] is 1800 nM; in series [2], 1 nM; in series [3] it was 9.5 nM; in [4], 0.1 nM; in series [5], 0.5 nM.

As usually defined, the Cmax is the highest concentration seen after dosing. Usually bioavailability stands for dose-corrected exposure relative to a reference, in per cent. Broadly, the inhibition in vivo is the percentage by which the read-out fell short of the control. By half-life is commonly meant the time in which the quantity being followed falls by half. As to `CC(c1cccc(-c2cc(C(C)(C)S(C)(=O)=O)cc3cccnc23)c1)N(C(=O)c1ccc(F)cc1)c1ccc(S(C)(=O)=O)cc1` (racemic), the IC50 was 560 nM in [1]; 2.3 nM in series [2]; 12 nM in [3]; 0.6 nM in series [4]; 1.8 nM in [5]. Besides, the Cmax in series [6] was 2700 nM; in series [10], 900 nM. Further, the bioavailability in series [7] was found to be 67%; in series [11] it was 98%. Further, the inhibition in vivo at 0.03 mg/kg in the series with Cavia porcellus [8] turned out to be 74%. For the same compound, the half-life in series [9] was 420 min; in [12], 120 min.

For the compound `Cc1cc(C(=O)N(Cc2cccc(-c3cc(C(C)(C)C#N)cc4cccnc34)c2)c2ccc(S(C)(=O)=O)cc2)no1`, the IC50 in series [1] is 30 nM; in series [2], 0.3 nM; in series [3] it was 0.9 nM; in series [4], 0.1 nM; in [5], 0.1 nM.

Consider `CC(c1cccc(-c2cc(C(C)(C)S(C)(=O)=O)cc3cccnc23)c1)N(C(=O)C1CC1)c1ccc(S(C)(=O)=O)cc1` (configuration not stated), for which the IC50 worked out at 800 nM in series [1]; 1.6 nM in series [2]; 17 nM in series [3]; 0.6 nM in series [4]; 1.4 nM in [5].

Regarding `COc1ccc([C@H](Cc2ccncc2)c2ccccc2)cc1OC1CCCC1` [CDP840], in the series with Cavia porcellus [13], the inhibition in vivo at 1 mg/kg is 55%.

In the case of `CC(c1cccc(-c2cc(C(C)(C)S(C)(=O)=O)cc3cccnc23)c1)N(C(=O)c1ccc(C(C)(C)O)cc1)c1ccc(S(C)(=O)=O)cc1` (configuration not stated), the IC50 in series [1] was found to be 270 nM; in series [2] it was 1.5 nM; in [3], 5.9 nM; in [4] it was 0.4 nM; in [5], 0.5 nM.

Consider `CC(C)NC(=O)N(c1ccc(S(C)(=O)=O)cc1)C(C)c1cccc(-c2cc(C(C)(C)S(C)(=O)=O)cc3cccnc23)c1` (configuration not stated), for which the IC50 was determined as 400 nM in series [1]; 1.8 nM in series [2]; 25 nM in series [3]; 0.7 nM in series [4]; 1.9 nM in [5].

With `CC(C)NC(=O)N(Cc1cc(-c2cc(C(C)(C)S(C)(=O)=O)cc3cccnc23)ccc1F)c1ccc(S(C)(=O)=O)cc1`, the IC50 in series [1] was determined as 50 nM; in series [2], 0.6 nM; in [3] it was 6.4 nM; in series [4] it was 0.3 nM; in series [5], 0.8 nM.

These data come from ChEMBL document CHEMBL1147684, “Nitrogen-bridged substituted 8-arylquinolines as potent PDE IV inhibitors” (Bioorg Med Chem Lett, 2006).
